These results are taken from paper PMC2777746 (ACS chemical biology, 2009).

The subject of series [1] is C. albicans group I intron precursor. The experiment in a line: Inhibition of C. albicans group I intron precursor self-splicing. The format is biochemical, Candida albicans. The settings on record: read-out: IC50 for inhibition of precursor self-splicing; 2 mM Mg2+ (H2Mg buffer: 50 mM Na HEPES pH 7.5, 135 mM KCl), 1 mM nucleotide bulk yeast tRNA competitor, 100 µM GMP; four parameter logistic fit.

The nature of another series: Solubility in water. Format: physicochemical.

In general, IC50 refers to the point on the concentration scale where inhibition reaches its midpoint. `N=C(N)c1ccc(OCCCCCOc2ccc(C(=N)N)cc2)cc1` [Pentamidine, pentamidine]: the IC50 in series [1] worked out at 200 ± 35 µM. Take `NCCc1c[nH]c2ccccc12` [Compound 4, tryptamine]: the solubility in water entry in the series “Solubility in water” is given as “not soluble in water”. Consider `c1ccc(Cn2cc(CN(Cc3cn(Cc4ccccc4)nn3)Cc3cn(Cc4ccccc4)nn3)nn2)cc1` [TBTA, tris(benzyltriazolylmethyl)amine], for which, in series [1], the IC50 is greater than 5000 µM.
